Reference: patent US6534542B2, “(2-hydroxy)ethyl-thioureas useful as modulators of α2B adrenergic receptors” (Allergen Sales, Inc., priority 2001, dated 2003)

Tests used:
[1] = target: T1, alpha2B receptor (Homo sapiens, UniProt P18089); experiment: Receptor Selection and Amplification Technology (RSAT) assay, alpha2B; assay type: cell-based; conditions: NIH-3T3 cells; for EC50: NA = not active at concentrations less than 10 micromolar, read-out: RSAT EC50 (nM) Alpha 2B; for fraction of activity of the standard (brimonidine) attained, Alpha 2B (number in parenthesis): ratio of maximal effect to that of standard full agonist brimonidine
T1 construct: expressed in transfected cells; host or cells: NIH-3T3
T1 sequence (P18089 1-450): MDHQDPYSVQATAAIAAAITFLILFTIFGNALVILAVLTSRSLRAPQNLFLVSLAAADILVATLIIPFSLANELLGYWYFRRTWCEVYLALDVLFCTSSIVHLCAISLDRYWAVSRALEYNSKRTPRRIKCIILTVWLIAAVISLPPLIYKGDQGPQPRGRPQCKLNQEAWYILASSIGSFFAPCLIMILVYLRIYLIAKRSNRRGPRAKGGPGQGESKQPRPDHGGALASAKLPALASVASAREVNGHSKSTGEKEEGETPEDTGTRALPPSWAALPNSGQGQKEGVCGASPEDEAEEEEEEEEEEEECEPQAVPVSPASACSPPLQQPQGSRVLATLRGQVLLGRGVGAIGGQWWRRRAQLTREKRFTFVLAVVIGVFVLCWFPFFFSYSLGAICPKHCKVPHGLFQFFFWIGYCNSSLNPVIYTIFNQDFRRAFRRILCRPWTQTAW
Description: (§1) The compounds of the invention are agonists of α2 adrenergic receptors, particularly they tend to be specific or selective agonists of α2B and/or to a lesser extent α2C adrenergic receptors, in preference over α2A adrenergic receptors. […] Al., 1995, Pharmacol. Toxicol. 76, pp. 308-311 (incorporated herein by reference) and is also described below. Another reference pertinent to this assay is Conklin et al. (1993) Nature 363:274-6, also incorporated herein by reference.
(§2) The RSAT assay measures a receptor-mediated loss of contact inhibition that results in selective proliferation of receptor-containing cells in a mixed population of confluent cells. The increase in cell number is assessed with an appropriate transfected marker gene such as β-galactosidase, the activity of which can be easily measured in a 96-well format. Receptors that activate the G protein, Gq, elicit this response. Alpha2 receptors, which normally couple to Gi, activate the RSAT response when coexpressed with a hybrid Gq protein that has a Gi receptor recognition domain, called Gq/i5^2.
(§3) NIH-3T3 cells are plated at a density of 2×10^6 cells in 15 cm dishes and maintained in Dulbecco's modified Eagle's medium supplemented with 10% calf serum. One day later, cells are cotransfected by calcium phosphate precipitation with mammalian expression plasmids encoding p-SV-β-galactosidase (5-10 μg), receptor (1-2 μg) and G protein (1-2 μg). 40 μg salmon sperm DNA may also be included in the transfection mixture. Fresh media is added on the following day and 1-2 days later, cells are harvested and frozen in 50 assay aliquots. Cells are thawed and 100 μl added to 100 μl aliquots of various concentrations of drugs in triplicate in 96-well dishes. Incubations continue 72-96 hr at 37°. After washing with phosphate-buffered saline, β-galactosidase enzyme activity is determined by adding 200 μl of the chromogenic substrate (consisting of 3.5 mM o-nitrophenyl-β-D-galactopyranoside and 0.5% nonidet P-40 in phosphate buffered saline), incubating overnight at 30 and measuring optical density at 420 nm. The absorbance is a measure of enzyme activity, which depends on cell number and reflects a receptor-mediated cell proliferation. The EC50 and maximal effect of each drug at each alpha2 receptor is determined. The efficacy or intrinsic activity is calculated as a ratio of the maximal effect of the drug to the maximal effect of a standard full agonist for each receptor subtype. Brimonidine, also called […], the chemical structure of which is shown below, is used as the standard agonist for the alpha2A, alpha2B and alpha2C receptors. [drawing 6]
(§4) The results of the RSAT assay with several exemplary compounds of the invention are disclosed in Table 3. […] NA stands for “not active” at concentrations less than 10 micromolar. As is known EC50 is the concentration at which half of a given compound's maximal activity is observed. It can be seen from the table that the compounds of the invention are specific or selective agonists of α2B and/or α2C adrenergic receptors, with no agonist like activity or only with insignificant agonist-like activity on α2A receptors.

[2] = target: T2, alpha2C receptor (Homo sapiens, UniProt P18825); experiment: Receptor Selection and Amplification Technology (RSAT) assay, alpha2C; assay type: cell-based; conditions: NIH-3T3 cells; for EC50: NA = not active at concentrations less than 10 micromolar, read-out: RSAT EC50 (nM) Alpha 2C; for fraction of activity of the standard (brimonidine) attained, Alpha 2C (number in parenthesis): ratio of maximal effect to that of standard full agonist brimonidine
T2 construct: expressed in transfected cells; host or cells: NIH-3T3
T2 sequence (P18825 1-462): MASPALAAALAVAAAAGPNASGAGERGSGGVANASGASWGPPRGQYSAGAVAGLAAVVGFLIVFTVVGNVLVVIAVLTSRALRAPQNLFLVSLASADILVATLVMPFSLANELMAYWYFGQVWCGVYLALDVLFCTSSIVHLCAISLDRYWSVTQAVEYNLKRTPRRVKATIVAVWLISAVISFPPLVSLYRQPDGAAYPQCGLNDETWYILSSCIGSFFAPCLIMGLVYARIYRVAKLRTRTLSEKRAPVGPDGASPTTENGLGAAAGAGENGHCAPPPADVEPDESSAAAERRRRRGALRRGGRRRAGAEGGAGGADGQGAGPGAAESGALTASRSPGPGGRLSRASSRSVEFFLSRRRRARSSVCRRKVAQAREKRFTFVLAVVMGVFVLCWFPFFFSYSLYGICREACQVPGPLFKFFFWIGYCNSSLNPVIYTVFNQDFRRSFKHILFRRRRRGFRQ
Description: as §1, §2, §3, §4

[3] = system: rats with ligated L5 and L6 spinal nerves; experiment: Alleviation of chronic pain: tactile allodynia after L5/L6 spinal nerve ligation (von Frey hairs); assay type: in vivo, rat; conditions: 30 minutes after administration, ±SEM
Description: A model for chronic pain (in particular peripheral neuropathy such as causalgia) involves the surgical ligation of the L5 (and optionally the L6) spinal nerves on one side in experimental animals. Rats recovering from the surgery gain weight and display a level of general activity similar to that of normal rats. However, these rats develop abnormalities of the foot, wherein the hindpaw is moderately everted and the toes are held together. More importantly, the hindpaw on the side affected by the surgery appears to become sensitive to pain from low-threshold mechanical stimuli, such as that producing a faint sensation of touch in a human, within about 1 week following surgery. This sensitivity to normally non-painful touch is called “tactile allodynia” and lasts for at least two months. The response includes lifting the affected hindpaw to escape from the stimulus, licking the paw and holding it in the air for many seconds. None of these responses is normally seen in the control group.
Rats are anesthetized before surgery. The surgical site is shaved and prepared either with betadine or Novacaine. Incision is made from the thoracic vertebra XIII down toward the sacrum. Muscle tissue is separated from the spinal vertebra (left side) at the L4-S2 levels. The L6 vertebra is located and the transyerse process is carefully removed with a small rongeur to expose the L4-L6 spinal nerves. The L5 and L6 spinal nerves are isolated and tightly ligated with 6-0 silk thread. The same procedure is done on the right side as a control, except no ligation of the spinal nerves is performed. A complete hemostasis is confirmed, then the wounds are sutured. A small amount of antibiotic ointment is applied to the incised area, and the rat is transferred to the recovery plastic cage under a regulated heat-temperature lamp. On the day of the experiment, at least seven days after the surgery, typically six rats per test group are administered the test drugs by intraperitoneal (i.p.) injection or oral gavage. For i.p. injection, the compounds are formulated in approximately 10 to 50% DMSO and given in a volume of 1 ml/kg body weight.
Tactile allodynia is measured prior to and 30 minutes after drug administration using von Frey hairs that are a series of fine hairs with incremental differences in stiffness. Rats are placed in a plastic cage with a wire mesh bottom and allowed to acclimate for approximately 30 minutes. The von Frey hairs are applied perpendicularly through the mesh to the mid-plantar region of the rats' hindpaw with sufficient force to cause slight buckling and held for 6-8 seconds. The applied force has been calculated to range from 0.41 to 15.1 grams. If the paw is sharply withdrawn, it is considered a positive response. A normal animal will not respond to stimuli in this range, but a surgically ligated paw will be withdrawn in response to a 1-2 gram hair. The 50% paw withdrawal threshold is determined using the method of Dixon, […]. The post-drug threshold is compared to the pre-drug threshold and the percent reversal of tactile sensitivity is calculated based on a normal threshold of 15.1 grams. The results are expressed in per cent (%) MPE, where the MPE value reflects the percentage reversal of pain threshold to that of a normal animal (100%). Table 4 below indicates results of this test with Compounds 8, 34 and 40 of the invention, administered i.p., in intrathecal and oral doses.

SMILES | EC50 [1] [nM] | fraction of activity of the standard (brimonidine) attained, Alpha 2B (number in parenthesis) [1] | EC50 [2] [nM] | fraction of activity of the standard (brimonidine) attained, Alpha 2C (number in parenthesis) [2] | % MPE ([3]; IP dose 10 μg/kg) [% MPE] | % MPE ([3]; IP dose 30 μg/kg) [% MPE] | % MPE ([3]; IP dose 100 μg/kg) [% MPE] | % MPE ([3]; IP dose 300 μg/kg) [% MPE] | % MPE ([3]; IP dose 1000 μg/kg) [% MPE] | % MPE ([3]; Intrathecal dose 30 μg) [% MPE] | % MPE ([3]; Intrathecal dose 100 μg) [% MPE] | % MPE ([3]; Intrathecal dose 300 μg) [% MPE]
OCCNC(=S)NC1C=CCCC1 (stereo not drawn) [Compound 35, 1-(Cyclohex-2-enyl)-3-(2-hydroxy-ethyl)-thiourea] | 73 | (0.58) | 630 | (0.4) |  |  |  |  |  |  |  | 
OCCNC(=S)NCC1CC=CCC1 (stereo not drawn) [Compound 8, 1-Cyclohex-3-enylmethyl-3-(2-hydroxy-ethyl)-thiourea] | 17 | (0.79) |  |  | 1.5 ± 0.9 | 47 ± 8.6 | 63 ± 9.1 | 56 ± 6.5 | 52 ± 8.4 | 0.02 ± 0.6 | 1.3 ± 0.6 | 20 ± 5.1
CC1=C(C)C(NC(=S)NCCO)CCC1 (stereo not drawn) [Compound 31, 1-(2,3-Dimethyl-cyclohex-2-enyl)-3-(2-hydroxy-ethyl)-thiourea] | 6 | (0.8) | 253 | (0.37) |  |  |  |  |  |  |  | 
CCCCC1=C(CNC(=S)NCCO)CCC1 [Compound 25, 1-(2-Butyl-cyclopent-1-enylmethyl)-3-(2-hydroxy-ethyl)-thiourea] | > 2000 | (0.51) | 738 | (0.69) |  |  |  |  |  |  |  | 
CC1=CCCCC1NC(=S)NCCO (stereo not drawn) [Compound 33, 1-(2-Hydroxy-ethyl)-3-(2-methyl-cyclohex-2-enyl)-thiourea] | 12 | (0.71) | 251 | (0.98) |  |  |  |  |  |  |  | 
CCC1=CCCCC1NC(=S)NCCO (stereo not drawn) [Compound 34, 1-(2-Hydroxy-ethyl)-3-(2-ethyl-cyclohex-2-enyl)-thiourea] | 11 | (0.88) | 59 | (0.62) | 0.4 ± 1.0 | 48 ± 6.1 | 66 ± 11 | 96 ± 3.7 |  |  |  | 
CC1=C(CNC(=S)NCCO)CCC1 [Compound 27, 1-(2-Methyl-cyclopent-1-enylmethyl)-3-(2-hydroxy-ethyl)-thiourea] | 135 | (0.75) | 1730 | (0.3) |  |  |  |  |  |  |  | 
CC1=CCCC1NC(=S)NCCO (stereo not drawn) [Compound 14, 1-(2-Hydroxy-ethyl)-3-(2-methyl-cyclopent-2-enyl)-thiourea] | 97 | (0.95) | 3000 | (0.3) |  |  |  |  |  |  |  | 
